One compound from US4363807A, “Cepham compounds” (Fujisawa Pharmaceutical Company, Limited, priority 1978, dated 1982) can be followed below.

For assay [1], the system named is Klebsiella pneumoniae 20. The assay is described as follows: In vitro antibacterial activity, two-fold agar-plate dilution method (MIC), Klebsiella pneumoniae 20. It is filed as cell-based. As to conditions: heart infusion agar, 37° C., 20 hours, read-out: MIC (minimal inhibitory concentration). Here is the method:
(§1) 1. In vitro antibacterial activity: (1) Test method: In vitro antibacterial activity was determined by the two-fold agar-plate dilution method as described below. One loopful of an overnight culture of each test strain in Trypticase soy broth was streaked on heart infusion agar (HI-agar) containing graded concentration of the test compound and incubated at 37° C. for 20 hours. The minimal inhibitory concentration (MIC) was expressed in μg/ml.

Assay [2] deals with Proteus mirabilis 18. Kind of assay: In vitro antibacterial activity, two-fold agar-plate dilution method (MIC), Proteus mirabilis 18. Type of assay: cell-based. The note with it: heart infusion agar, 37° C., 20 hours, read-out: MIC (minimal inhibitory concentration). The procedure: as §1

Converted amounts (≈) assume the structure as drawn.

As to `CO/N=C(\C(=O)NC1C(=O)N2C(C(=O)O)C(=COC(C)=O)CSC12)c1csc(N)n1` (stereo not drawn) [Test compound, 7-[2-(2-Aminothiazol-4-yl)-2-methoxyiminoacetamido]-3-acetoxymethylenecepham-4-carboxylic acid (syn isomer)], the MIC in assay [1] and in assay [2] was 6.25 µg/mL (≈ 13.7 µM) each time.
